Literature values in PMC2698789 (Pancreas, 2008).

Tested on: sst 2 receptor

C[C@@H](O)[C@@H]1NC(=O)[C@H](CCCCN)NC(=O)[C@@H](Cc2c[nH]c3ccccc23)NC(=O)[C@H](Cc2ccccc2)NC(=O)[C@@H](NC(=O)[C@H](N)Cc2ccccc2)CSSC[C@@H](C(=O)N[C@H](CO)[C@@H](C)O)NC1=O [octreotide, Octreotide acetate]
Receptor subtype preference among somatostatin receptors sst 1–sst 5: binds preferentially to sst 2
